Data on one compound can be found in US20220304957A1, “ANTI-CANCER COMPOSITIONS AND METHODS OF USE” (Board of Supervisors of Louisiana State University and …, priority 2019, published 2022).

The nature of series [1]: Stability in human blood (HPLC). The following applies: 50 μM added, 37 °C, 48-hour time point. It is filed as in vitro ADME. The procedure:
Aliquots of 50 μM PP1 and FF in DMSO were added to 500 μl to heparinized human blood to a final concentration of 50 μM. Following incubation at 37° C. for the indicated time points, the samples were frozen at −80° C., and later prepared for HPLC-based detection of the compounds. Please note that FF is converted to FA in the presence of human blood. […] Data represent average values with standard deviation (n=3). panel B: Water solubility. FF and PP1, were added to water to a final concentration of 50 mM and sonicated in an ultrasonic bath (Branson 1510 Digital Heated Ultrasonic bath) for one hour at room temperature. The samples were then centrifuged for 10 minutes at 16000×g, and the supernatant filtered through 0.45 μm syringe filter. […] The PPAR transcriptional activity was determined in HepG2 cells by the JsTkpGL3 reporter plasmid, which contains a firefly luciferase gene driven by the PPRE, which consists of three copies of the J site from the apo-AII gene promoter. […] The luciferase activity was detected with Dual-Luciferase reporter assay system (Promega, Madison, Wis.), and the resulting luminescence measured with Synergy 2 microplate reader (BioTek, Winooski, Vt.). […]
In this experiment, 50 μM of PP1 and 50 μM of FF were incubated with human blood at […], at indicated time points. […] In contrast, nearly 25 μM of PP1 was still detected at the 48-hour time point (FIG. 4A; left panel).

The test system of series [2] is mitochondrial respiration and glycolysis in LN-229 human glioblastoma cells. Put plainly: Metabolic parameters, Extracellular Flux Analyzer (OCR/ECAR). It is filed as cell-based. The following applies: 25 μM, LN229. The procedure:
Metabolic responses of LN-229 human glioblastoma cells were evaluated with Extracellular Flux Analyzer XF24 (Seahorse Biosciences, North Billerica, Mass.). Prior each assay the cells were plated at 4×10^4 cells/well in 24-well plates in growth supporting media. At the time of measurement, growth media were replaced with serum-free XF medium (Seahorse) in cartridges equipped with oxygen-sensitive and pH-sensitive fluorescent probes. The oxygen consumption rate (OCR; indicative of mitochondrial respiration) and acidification rate (ECAR; indicative of glycolysis) were evaluated after injecting the following metabolic toxins: oligomycin, FCCP; rotenone; and antimycin A. Immediate metabolic effects were determined by comparing OCR and ECAR values in cells pre-incubated with DMSO (vehicle), or with PP1 and FF, all used at 25 μM. A: Representative experiment in which real OCR (pmol/min) and ECAR (mpH/min) values are shown. Other relevant metabolic parameters calculated from this experiment include ATP production, Spare Respiratory Capacity, basal OCR levels and proton leak. B: Average OCR and ECAR data (% change over basal OCR and ECAR values) from three independent experiments repeated 5 times (n=15).
Evaluation of metabolic parameters—Metabolic responses of human glioblastoma cells were evaluated with Extracellular Flux Analyzer XFe24 (Agilent Technologies). […]

Each structure is given as a SMILES string.

Consider `CN(CCO)C(=O)C(C)(C)Oc1ccc(C(=O)c2ccc(Cl)cc2)cc1` [PP1, 2-[4-(4-chlorobenzoyl)phenoxy]-N-(2-hydroxyethyl)-N,2-dimethylpropanamide], for which the “compound still detected in human blood” value in series [1] was roughly 25 µM. In series [2], the “extracellular acidification rate (ECAR)” value is “corresponding increases in ECAR” and the “oxygen consumption rate (OCR)” value is “dramatic decrease of OCR values”.
